Measured values taken from article PMC5039586, “Biofilms from Klebsiella pneumoniae: Matrix Polysaccharide Structure and Interactions with Antimicrobial Peptides” (Microorganisms, 2016).
Ends that are not written are not given here.

Columns and labels:
KpTs113 [1] = experiment: Peptide uptake by flow cytometry with Trypan Blue quenching; assay type: cell-based, Klebsiella pneumoniae; conditions: KpTs113, 0.25 µM peptide, 10 min, 37 °C, 1 mg/mL TB
Protocol: Flow cytometric assays were performed with a Cytomics FC 500 instrument (Beckman-Coulter, Inc., Fullerton, CA, USA) equipped with an argon laser (488 nm, 5 mW) and photomultiplier tube fluorescence detectors. Filtered light wavelength was set at 610 nm for Propidium Iodide (PI) (Sigma, Saint Louis, MO, USA) detection and at 525 nm for BODIPY (BY) detection. All detectors were set on logarithmic amplification. Optical and electronic noise were eliminated by setting an electronic gating threshold on the forward scattering detector, while the flow rate was kept at a data rate below 300 events/second to avoid cell coincidence. For each sample, at least 10,000 events were acquired and stored as list mode files. For the uptake evaluation, cultures of mid-log phase bacteria, diluted to 1 × 10^6 CFU/mL in MHB, were incubated at 37 °C for 10 min with 0.25 µM Bac7(1–35)-BY; after incubation, treated bacterial cells were washed three times in buffered high salt solution (10 mM sodium phosphate, 400 mM NaCl, 10 mM MgCl2, pH 7.2) in order to remove the fraction of peptide bound to the cell surfaces, and immediately analysed by the flow cytometer with or without a 10 min pre-incubation at room temperature with 1 mg/mL of the quencher Trypan Blue (TB).

KpTs107 biofilm = conditions: 24 h
KpTs101 biofilm = experiment: Biofilm susceptibility assay (BIC), sessile cells on peg lids; assay type: cell-based, Klebsiella pneumoniae; conditions: sessile KpTs101, 24 h with peptide, then 6 h regrowth, OD590 < 0.05
KpTs12 biofilm = conditions: 24 h
KpTs101 [2] = assay type: cell-based, Klebsiella pneumoniae; conditions: 24 h
Protocol: (§1) Minimum inhibitory concentration (MIC) determinations were carried out in MHB on mid-log phase bacteria (1–5 × 10^5 CFU/mL, CFU: colony-forming units) as previously described. […] Data are reported in Table 2 (Ps column) together with MIC and BIC values from Table 1 for an easy comparison. […] To further investigate this protection mechanism, we then determined if the matrix polysaccharide interacted with the helical AMP BMAP-27 by monitoring its effect on peptide structure, using circular dichroism.

KpTs113 [3] = assay type: cell-based, Klebsiella pneumoniae; conditions: 24 h
Protocol: as §1

ATCC 700603 biofilm = conditions: ATCC 700603, 24 h
KpTs101 [4] = assay type: cell-based, Klebsiella pneumoniae; conditions: 24 h; remark: listed apart in the source
Protocol: (§2) The bacterial inoculum was incubated overnight in MHB with shaking, then diluted 1:30 in fresh MHB and incubated with shaking for approximately 2 h to the mid-log phase, before resuspending to the appropriate dose, according to the optical density (OD). Minimum inhibitory concentration (MIC) determinations were carried out in MHB on mid-log phase bacteria (1–5 × 10^5 CFU/mL, CFU: colony-forming units) as previously described.

ATCC 700603 = assay type: cell-based, Klebsiella pneumoniae; conditions: ATCC 700603, 24 h
Protocol: as §2

KpTs107 = assay type: cell-based, Klebsiella pneumoniae; conditions: 24 h
Protocol: as §2

KpMn7 = assay type: cell-based, Klebsiella pneumoniae; conditions: 24 h
Protocol: as §2

KpTs12 = assay type: cell-based, Klebsiella pneumoniae; conditions: 24 h
Protocol: as §2

KpTs109 = assay type: cell-based, Klebsiella pneumoniae; conditions: 24 h
Protocol: as §2

KpTs113 [5] = assay type: cell-based, Klebsiella pneumoniae; conditions: 24 h; remark: listed apart in the source
Protocol: as §2

KpMn7 biofilm = conditions: 24 h
KpTs109 biofilm = conditions: 24 h
KpTs113 biofilm = experiment: Biofilm susceptibility assay (BIC), sessile cells on peg lids; assay type: cell-based, Klebsiella pneumoniae; conditions: sessile KpTs113, 24 h with peptide, then 6 h regrowth, OD590 < 0.05

Substance: Bac7(1–35)-BY: BODIPY fluorescently labelled derivative of Bac7(1–35) (RRIRPRPPRLPRPRPRPLPFPRPGPRPIPRPLPFP; also: BODIPY label, position not given here; UniProt P19661 131-165, looked up, fragment)
- quenching of cell fluorescence by Trypan Blue (uptake) (KpTs113 [1]): < 10%

Substance: GRFKRFRKKFKKLFKKLSPVIPLLHL-NH2 [BMAP-27]
- BIC (biofilm inhibitory concentration) (KpTs107 biofilm): >64 µM
- BIC (biofilm inhibitory concentration) (KpTs101 biofilm): >64 µM
- BIC (biofilm inhibitory concentration) (KpTs12 biofilm): 16 µM
- Ps, MIC in the presence of matrix polysaccharide (KpTs101 [2]): 64 µM
- Ps, MIC in the presence of matrix polysaccharide (KpTs113 [3]): 64 µM
- BIC (biofilm inhibitory concentration) (ATCC 700603 biofilm): 64 µM
- MIC (KpTs101 [4]): 2 µM
- MIC (ATCC 700603): 4 µM
- MIC (KpTs107): 4 µM
- MIC (KpMn7): 4 µM
- MIC (KpTs12): 4 µM
- MIC (KpTs109): 4 µM
- MIC (KpTs113 [5]): 2 µM
- BIC (biofilm inhibitory concentration) (KpMn7 biofilm): 64 µM
- BIC (biofilm inhibitory concentration) (KpTs109 biofilm): 32 µM
- BIC (biofilm inhibitory concentration) (KpTs113 biofilm): >64 µM

Substance: RRIRPRPPRLPRPRPRPLPFPRPGPRPIPRPLPFP [Bac7(1–35)]
- BIC (biofilm inhibitory concentration) (KpTs107 biofilm): 16 µM
- BIC (biofilm inhibitory concentration) (KpTs101 biofilm): 64 µM
- BIC (biofilm inhibitory concentration) (KpTs12 biofilm): 8 µM
- Ps, MIC in the presence of matrix polysaccharide (KpTs101 [2]): 32 µM
- Ps, MIC in the presence of matrix polysaccharide (KpTs113 [3]): 32 µM
- BIC (biofilm inhibitory concentration) (ATCC 700603 biofilm): 32 µM
- MIC (KpTs101 [4]): 2 µM
- MIC (ATCC 700603): 4 µM
- MIC (KpTs107): 4 µM
- MIC (KpMn7): 4 µM
- MIC (KpTs12): 4 µM
- MIC (KpTs109): 4 µM
- MIC (KpTs113 [5]): 2 µM
- BIC (biofilm inhibitory concentration) (KpMn7 biofilm): 32 µM
- BIC (biofilm inhibitory concentration) (KpTs109 biofilm): 32 µM
- BIC (biofilm inhibitory concentration) (KpTs113 biofilm): 64 µM
